What is called Ki is a dissociation constant, usually derived from enzyme kinetics or from competition with a known ligand. Low values mean a stronger hold on the target, high ones a looser hold on the target. By IC50 is commonly meant the concentration that inhibits the measured activity by half. A lower IC50 goes with higher potency. One may read the inhibition as the change of the read-out against control, counted positive when it falls.

Among the data in ChEMBL document CHEMBL1130746, “Naphthalenebis[alpha,alpha-difluoromethylenephosphonates] as potent inhibitors of protein tyrosine phosphatases” (Bioorg Med Chem Lett, 1998) are Ki, IC50 and inhibition values, retold here.

The target of assay [1] is T1, Tyrosine-protein phosphatase non-receptor type 1 (Homo sapiens, UniProt P18031).
T1 sequence (P18031 whole entry): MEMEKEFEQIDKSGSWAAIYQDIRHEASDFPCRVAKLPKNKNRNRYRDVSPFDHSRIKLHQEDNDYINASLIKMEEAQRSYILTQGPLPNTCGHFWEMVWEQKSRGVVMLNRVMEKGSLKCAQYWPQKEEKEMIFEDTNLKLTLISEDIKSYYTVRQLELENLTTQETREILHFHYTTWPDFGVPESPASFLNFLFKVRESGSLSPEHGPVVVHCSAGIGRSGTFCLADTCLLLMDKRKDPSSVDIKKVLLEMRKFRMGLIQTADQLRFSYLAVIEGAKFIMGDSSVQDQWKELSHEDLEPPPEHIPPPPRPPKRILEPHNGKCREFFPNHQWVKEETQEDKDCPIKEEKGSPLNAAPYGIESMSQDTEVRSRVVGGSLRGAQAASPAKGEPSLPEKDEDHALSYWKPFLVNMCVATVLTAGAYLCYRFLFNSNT
The assay is described as follows: Compound was evaluated for inhibitory constant against PTP1B.

Assay [2] concerns the target T2, Receptor-type tyrosine-protein phosphatase C (Homo sapiens, UniProt P08575).
T2 sequence (P08575 whole entry): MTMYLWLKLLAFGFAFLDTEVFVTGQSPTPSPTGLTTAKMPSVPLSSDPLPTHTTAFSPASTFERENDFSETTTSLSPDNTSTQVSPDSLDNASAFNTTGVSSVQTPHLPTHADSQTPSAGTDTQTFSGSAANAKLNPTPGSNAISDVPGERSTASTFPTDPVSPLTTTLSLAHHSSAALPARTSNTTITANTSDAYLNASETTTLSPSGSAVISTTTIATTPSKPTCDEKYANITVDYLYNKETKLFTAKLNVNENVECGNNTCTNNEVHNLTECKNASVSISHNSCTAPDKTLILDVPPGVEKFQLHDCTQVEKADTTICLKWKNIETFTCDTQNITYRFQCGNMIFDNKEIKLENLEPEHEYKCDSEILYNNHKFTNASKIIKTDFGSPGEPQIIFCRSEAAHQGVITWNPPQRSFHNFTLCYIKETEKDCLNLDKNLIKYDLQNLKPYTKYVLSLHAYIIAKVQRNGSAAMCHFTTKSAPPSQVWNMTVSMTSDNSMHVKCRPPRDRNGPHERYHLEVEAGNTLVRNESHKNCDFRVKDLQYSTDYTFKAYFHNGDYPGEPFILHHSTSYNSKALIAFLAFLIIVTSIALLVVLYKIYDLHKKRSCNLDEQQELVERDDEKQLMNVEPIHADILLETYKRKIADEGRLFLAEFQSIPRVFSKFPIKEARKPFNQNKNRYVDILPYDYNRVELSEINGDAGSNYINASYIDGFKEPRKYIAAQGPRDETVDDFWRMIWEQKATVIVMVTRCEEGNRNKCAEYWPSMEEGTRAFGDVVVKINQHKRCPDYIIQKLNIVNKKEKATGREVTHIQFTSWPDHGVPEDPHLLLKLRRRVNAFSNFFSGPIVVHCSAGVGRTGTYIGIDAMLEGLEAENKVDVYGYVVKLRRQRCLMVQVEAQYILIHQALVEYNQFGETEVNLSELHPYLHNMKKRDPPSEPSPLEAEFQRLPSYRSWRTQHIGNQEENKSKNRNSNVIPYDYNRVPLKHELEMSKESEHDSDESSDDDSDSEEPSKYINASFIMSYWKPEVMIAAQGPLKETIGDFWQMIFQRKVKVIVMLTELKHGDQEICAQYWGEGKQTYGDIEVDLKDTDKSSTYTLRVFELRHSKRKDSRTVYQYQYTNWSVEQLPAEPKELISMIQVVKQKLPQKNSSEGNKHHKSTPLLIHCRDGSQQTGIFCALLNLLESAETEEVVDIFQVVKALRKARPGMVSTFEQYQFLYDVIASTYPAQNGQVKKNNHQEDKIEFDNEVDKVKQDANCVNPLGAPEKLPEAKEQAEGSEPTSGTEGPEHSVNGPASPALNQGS
As to the kind of experiment: Compound was evaluated for 50% inhibition of CD45 using uM).

The target of assay [3] is T3, Receptor-type tyrosine-protein phosphatase C (Homo sapiens) (UniProt P08575).
T3 sequence (whole entry): T2 sequence (P08575 whole entry)
The assay is described as follows: Compound was evaluated for inhibition of CD45 at a concentration of 500 uM).

The nature of assay [4]: Compound was evaluated for 50% inhibition of PP2A, a serine/threonine phosphatase using uM).
Assay [5] is described as follows: Compound was evaluated for inhibition of PP2A at a concentration of 500 uM).
The target of assay [6] is T4, Tyrosine-protein phosphatase non-receptor type 1 (Homo sapiens) (UniProt P18031).
T4 sequence (whole entry): T1 sequence (P18031 whole entry)
As to the kind of experiment: Compound was evaluated for inhibition of PTP1B at a concentration of 500 uM).

Assay [7] has as its target T1, Tyrosine-protein phosphatase non-receptor type 1. The assay is described as follows: Compound was evaluated for 50% inhibition of PTP1B using uM).
For assay [8], the target named is T2, Receptor-type tyrosine-protein phosphatase C. The assay is described as follows: Compound was evaluated for 50% inhibition of CD45 protein-tyrosine phosphatase using uM).
The target of assay [9] is T3, Receptor-type tyrosine-protein phosphatase C (Homo sapiens). As to the kind of experiment: Compound was evaluated for inhibition of CD45 protein-tyrosine phosphatase at a concentration of 500 uM).
The target in assay [10] is T2, Receptor-type tyrosine-protein phosphatase C. As to the kind of experiment: Compound was evaluated for inhibitory constant against CD45.

Each structure is given as a SMILES string.

As for `O=P(O)(O)C(F)(F)c1cc(O)c2ccccc2c1`, in [1], the affinity, expressed as Ki, was 93 µM.
As for `O=P(O)(O)C(F)(F)c1ccc2ccccc2c1`, the results for the half-inhibitory concentration (IC50) in assay [2], in assay [4] and in [7] were more than 1000 µM, 753 µM and 95 µM, respectively. In addition, the Ki in assay [1] was 197 µM. The inhibition in assay [3] was 5%; in assay [5] it was 39%; in assay [6], 84%.
As for `O=P(O)(O)C(F)(F)c1ccc2cc(C(F)(F)P(=O)(O)O)ccc2c1`, the figures for the IC50 in assay [8], in assay [4] and in assay [7] were more than 100 µM, 354 µM and 29 µM, respectively. In addition, the inhibition in assay [5] turned out to be 70%; in assay [6] it was 100%; in assay [9] it was 62%.
Take `O=P(O)(O)C(F)(F)c1ccc2ccc(C(F)(F)P(=O)(O)O)cc2c1`: the IC50 worked out at 180 µM in [2] and 306 µM in assay [4]. In assay [1], this molecule showed a Ki of 16 µM. Moreover, the inhibition was 64% in assay [3], 70% in assay [5] and 100% in [6].
As to `O=P(O)(O)C(F)(F)c1cccc2ccccc12`, the figures for the IC50 in assay [2], in [4] and in [7] were more than 1000 µM, 636 µM and 112 µM, respectively. For the same molecule, the Ki in assay [1] was found to be 255 µM. Further, the inhibition in [3] came out at 20%; in [5] it was 52%; in [6] it was 83%.
In the case of `O=P(O)(O)C(F)(F)c1cccc2c(C(F)(F)P(=O)(O)O)cccc12`, the results for the inhibition in assay [5], in [6] and in assay [9] were 77%, 51% and 26%, respectively.
For the molecule `O=P(O)(O)C(F)(F)c1ccc2c(C(F)(F)P(=O)(O)O)cccc2c1`, the inhibition in [5] turned out to be 75%; in assay [6] it was 89%; in assay [9], 70%.
With `O=P(O)(O)C(F)(F)c1cc(C(F)(F)P(=O)(O)O)c2ccccc2c1`, the inhibition came to 66% in assay [5], 81% in [6] and 78% in [9].
As for `O=P(O)(O)Cc1ccc2ccc(CP(=O)(O)O)cc2c1`, the values for the IC50 in assay [8] and in assay [7] were 500 µM and more than 500 µM, respectively.
For the molecule `O=P(O)(O)C(F)(F)c1ccc2cccc(C(F)(F)P(=O)(O)O)c2c1`, the half-inhibitory concentration (IC50) in assay [2] was 27 µM; in assay [4], 481 µM; in [7], 118 µM. In addition, the inhibition worked out at 61% in [5], 98% in assay [6] and 99% in assay [9]. The Ki in [10] turned out to be 9 µM.
For `O=P(O)(O)C(F)c1ccc2ccc(C(F)P(=O)(O)O)cc2c1` (configuration not stated), the values for the IC50 in [8] and in assay [7] were 279 µM and 130 µM, respectively.
